Assay results from patent US20130157345A1, “STABILIZATION AND ACTIVATION OF PROTEASE FOR USE AT HIGH TEMPERATURE” (ECOLAB USA INC., priority 2011, published 2013).

Tested on: protein (gelatin) layers of photographic film
Experiment: Photographic film test: removal of gelatin protein layers by enzyme in heated water
Format: biochemical
Conditions: 400 ppm additive, 160-170° F
Description: Photographic film contains a layer of a binding agent that is a protein (gelatin) which is readily attacked and removed by protease under ambient conditions. The film has multiple colored layers of the gelatin binding agent which can serve as an indication of the degree of attack if exposed to suitable enzymes. Photographic film was used in experiments to show the ability of enzymes, proteases, to attach or remove the protein layer under various conditions.
In the experiments outlined in Table 1, a beaker was charged with 5 grain tap water. An activator, “Additive 1”, was added to the beaker with the water temperature adjusted to the temperature as shown in the “Temp (F) Additive 1” column. The solution was then adjusted for the film test to the temperature as shown in “Temp (F) Enzyme” and a protease enzyme and section of photographic film added. The solution was stirred for 5 minutes and the film recovered and wiped with a paper towel for visual examination.
The additive, enzyme and then the combination of protease enzyme and additives were heated to the temperatures indicated in the applicable columns to analyze the various conditions under which the protease enzyme was able to readily attack and removed the protein (gelatin) layers of the photographic film. […]

Row | Compound | additive function as activator/stabilizer of enzymes at elevated temperatures
1 | O=C(O)[C@@H]1CCCN1 [proline] | function to activate and/or stabilize enzymes
2 | cocoamidyl propyl butane [CAPB] | function to activate and/or stabilize enzymes
